From ChEMBL document CHEMBL1909577, “Discovery of 3-hydroxy-4-cyano-isoquinolines as novel, potent, and selective inhibitors of human 11β-hydroxydehydrogenase 1 (11β-HSD1)” (Bioorg Med Chem Lett, 2011)
≈ marks a conversion by molar mass, not a printed value.

What was measured:
[1] = test system: Liver; details: mouse, microsomes, 10 min, 300 µM
Description: Metabolic stability of the compound in mouse liver microsomes assessed as stability rate per mg of protein at 300 uM after 10 mins by LC-MS/MS analysis in presence of NADPH

[2] = test system: Liver microsomes; details: rat, 10 min, 300 µM
Description: Metabolic stability of the compound in rat liver microsomes assessed as stability rate per mg of protein at 300 uM after 10 mins by LC-MS/MS analysis in presence of NADPH

[3] = Aqueous solubility of the compound; type: physicochemical
[4] = test system: Liver microsomes; details: human, 10 min, 300 µM
Description: Metabolic stability of the compound in human liver microsomes assessed as stability rate per mg of protein at 300 uM after 10 mins by LC-MS/MS analysis in presence of NADPH

[5] = target: T1, 11-beta-hydroxysteroid dehydrogenase 1 (Mus musculus, UniProt P50172); assay: Inhibition of mouse 11beta-HSD1
T1 sequence (P50172 whole entry): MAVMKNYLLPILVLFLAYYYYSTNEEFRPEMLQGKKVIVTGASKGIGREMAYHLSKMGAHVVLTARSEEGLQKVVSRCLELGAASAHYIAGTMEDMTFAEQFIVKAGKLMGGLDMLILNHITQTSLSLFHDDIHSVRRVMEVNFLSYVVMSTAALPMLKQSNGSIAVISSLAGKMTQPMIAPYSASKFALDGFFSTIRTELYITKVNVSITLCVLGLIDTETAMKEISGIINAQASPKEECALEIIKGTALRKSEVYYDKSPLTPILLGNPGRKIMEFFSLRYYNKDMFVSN

[6] = target: T2, 11-beta-hydroxysteroid dehydrogenase 1 (Homo sapiens, UniProt P28845); assay: Inhibition of human 11beta-HSD1 expressed in HEK293 cells assessed as conversion of [3H]-cortisone to [3H]-cortisol by scintillation plate reader; type: cell-based
T2 sequence (P28845 whole entry): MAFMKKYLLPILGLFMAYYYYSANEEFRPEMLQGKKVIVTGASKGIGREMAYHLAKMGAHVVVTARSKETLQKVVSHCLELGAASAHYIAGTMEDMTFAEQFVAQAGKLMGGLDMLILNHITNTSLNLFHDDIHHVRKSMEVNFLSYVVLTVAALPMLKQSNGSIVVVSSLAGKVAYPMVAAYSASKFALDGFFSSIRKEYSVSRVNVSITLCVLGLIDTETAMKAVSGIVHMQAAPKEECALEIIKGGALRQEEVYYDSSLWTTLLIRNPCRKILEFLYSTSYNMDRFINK

[7] = target: T3, 11-beta-hydroxysteroid dehydrogenase type 2 (Homo sapiens, UniProt P80365); assay: Inhibition of 11beta-HSD2
T3 sequence (P80365 whole entry): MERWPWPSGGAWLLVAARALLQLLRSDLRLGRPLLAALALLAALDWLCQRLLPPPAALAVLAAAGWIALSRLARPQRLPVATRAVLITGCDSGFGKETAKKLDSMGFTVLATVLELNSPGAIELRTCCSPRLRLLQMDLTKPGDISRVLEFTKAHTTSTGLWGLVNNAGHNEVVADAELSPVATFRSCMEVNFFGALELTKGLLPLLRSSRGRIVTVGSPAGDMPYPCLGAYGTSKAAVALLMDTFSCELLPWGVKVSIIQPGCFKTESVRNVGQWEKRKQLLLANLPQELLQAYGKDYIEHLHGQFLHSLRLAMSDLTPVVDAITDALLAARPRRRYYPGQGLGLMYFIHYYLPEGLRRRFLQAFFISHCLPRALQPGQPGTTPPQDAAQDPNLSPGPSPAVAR

[8] = target: T1, 11-beta-hydroxysteroid dehydrogenase 1; assay: Inhibition of 11beta-HSD1 in mouse 3T3L1 cells; type: cell-based, 3T3-L1
[9] = Cmax in Balb/C mouse at 10 umol/kg, po; type: ADME, organism-based; set-up: dose 10 umol/kg, route oral; details: in vivo
[10] = Tmax in Balb/C mouse at 10 umol/kg, po; type: ADME, organism-based; details: in vivo
[11] = AUC (0 to 8 hrs) in Balb/C mouse at 10 umol/kg, po; type: ADME, organism-based; set-up: time < 8 hr, dose 10 umol/kg, route oral; details: plasma
[12] = test system: UDP-glucuronosyltransferase (Mus musculus); assay: in vitro; details: human, liver microsomes
[13] = Inhibition of cynomolgus monkey 11beta-HSD1; set-up: species or system Macaca fascicularis
[14] = target: T2, 11-beta-hydroxysteroid dehydrogenase 1; assay: Inhibition of 11beta-HSD1 in human HEK cells; type: cell-based, HEK293
[15] = test system: 11β-HSD1 (Mus musculus); details: Homo sapiens

SMILES | Stability [1] | Stability [2] | solubility [3] | Stability [4] | IC50 [5] | further results
Oc1cc2c(c(SCc3ccccc3Cl)n1)CCCC2 | 0.3 nmol/min | 0.3 nmol/min |  | 0.27 nmol/min | 9250 nM | 
COc1ccccc1CSc1nc(O)c(C#N)c2c1CCCC2 |  |  |  |  | 9 nM | 
N#Cc1c(O)nc(SCc2ccccc2Cl)c2cc(F)ccc12 | 0 nmol/min | 0.04 nmol/min | 1 µg/mL (≈ 2.9 µM) | 0.09 nmol/min | 7 nM | IC50 [8]: 2250 nM; Cmax [9]: 2900 nM; Tmax [10]: 4 h; AUC(0-t) at 8 h [11]: 15 µM·h
N#Cc1ncccc1CSc1nc(O)c(C#N)c2ccc(F)cc12 | 0.02 nmol/min | 0.02 nmol/min | 3 µg/mL (≈ 8.92 µM) | 0 nmol/min | 24 nM | 
N#Cc1c2c(c(-c3ccccc3)[nH]c1=O)CCCC2 |  |  |  |  | 4350 nM | 
N#Cc1ccc(-c2c(O)nc(SCc3ccccc3Cl)c3c2CCCC3)cc1 | 0.18 nmol/min | 0.3 nmol/min | 1 µg/mL (≈ 2.46 µM) | 0.19 nmol/min | 3830 nM | 
N#Cc1c(=O)[nH]c(SCc2ccccc2Cl)c2c(F)cccc12 | 0.08 nmol/min | 0.05 nmol/min |  | 0.12 nmol/min | 10 nM | 
N#Cc1ccccc1CSc1nc(O)c(C#N)c2c1CCCC2 | 0.23 nmol/min | 0.25 nmol/min | 7 µg/mL (≈ 21.8 µM) | 0.15 nmol/min | 6 nM | 
N#Cc1c(O)nc(Sc2ccccc2Cl)c2c1CCCC2 | 0.17 nmol/min | 0.15 nmol/min | 1 µg/mL (≈ 3.16 µM) | 0.07 nmol/min | 95 nM | 
CS(=O)(=O)c1ccccc1CSc1nc(O)c(C#N)c2c1CCCC2 | 0.11 nmol/min | 0.19 nmol/min | 32 µg/mL (≈ 85.5 µM) | 0 nmol/min | 10 nM | 
N#Cc1c(O)nc(SCc2ccccc2Cl)nc1-c1ccccc1 |  |  |  |  | 58 nM | IC50 [14]: 1100 nM; IC50 [6]: 27 nM; IC50 [8]: 2850 nM; Cmax [9]: 7100 nM; IC50 [13]: 53 nM; Tmax [10]: 1 h; AUC(0-t) at 8 h [11]: 37 µM·h; half-life [12]: > 3.33 h; IC50 [15]: 58 nM
N#Cc1c(O)nc(SCCc2ccccc2Cl)c2c1CCCC2 | 0.27 nmol/min | 0.24 nmol/min | 1 µg/mL (≈ 2.9 µM) | 0.18 nmol/min | 6 nM | 
N#Cc1c(O)nc(SCc2ccccc2Cl)c2cccc(F)c12 | 0.08 nmol/min | 0.13 nmol/min |  | 0.24 nmol/min | 7 nM | 
N#Cc1c(O)nc(SCc2ccccc2Cl)c2c1CCN(Cc1ccccc1)C2 | 0.04 nmol/min | 0 nmol/min |  | 0.08 nmol/min | 4350 nM | 
N#Cc1c(O)nc(SCC2CCC2)c2c1CCCC2 | 0.16 nmol/min | 0.24 nmol/min |  | 0 nmol/min | 33 nM | 

Now from value to compound, other results behind:

Stability [1] | Stability [2] | solubility [3] | Stability [4] | IC50 [5] | SMILES | further results
Unstable | Unstable | 1 µg/mL (≈ 3.18 µM) | Unstable | 6 nM | N#Cc1c(O)nc(OCc2ccccc2Cl)c2c1CCCC2 | 
 |  | 1 µg/mL (≈ 3.02 µM) |  | 39 nM | N#Cc1c(O)nc(SCc2cccc(Cl)c2)c2c1CCCC2 | 
 |  |  |  | 2270 nM | Oc1nc(SCc2ccccc2Cl)c2c(c1Br)CCCC2 | 
 |  |  |  | 16 nM | N#Cc1c(O)nc(SCc2ccccc2)c2c1CCCC2 | 
0 nmol/min | 0.07 nmol/min |  | 0.04 nmol/min | 50 nM | N#Cc1c(O)nc(SCc2ccccc2)c2c1-c1ccccc1CC2 | IC50 [6]: 5 nM; IC50 [7]: 386 nM
0.2 nmol/min | 0.23 nmol/min | 1 µg/mL (≈ 3.06 µM) | 0.17 nmol/min | 19 nM | N#Cc1c(O)nc(SCc2ccccc2Cl)c2ccccc12 | 
0.02 nmol/min | 0.04 nmol/min | 2 µg/mL (≈ 6.08 µM) | 0.05 nmol/min | 21 nM | N#Cc1c(=O)[nH]c(OCc2ccccc2Cl)c2cc(F)ccc12 | IC50 [8]: 2160 nM; Cmax [9]: 2300 nM; Tmax [10]: 4 h; AUC(0-t) at 8 h [11]: 12 µM·h
0.05 nmol/min | 0.05 nmol/min | 38 µg/mL (≈ 118 µM) | 0.04 nmol/min | 10 nM | N#Cc1ncccc1CSc1nc(O)c(C#N)c2c1CCCC2 | 
0.1 nmol/min | 0.05 nmol/min |  | 0.12 nmol/min | 14 nM | N#Cc1c(=O)[nH]c(SCc2ccccc2Cl)c2ccc(F)cc12 | 
0.07 nmol/min | 0.04 nmol/min | 8 µg/mL (≈ 24 µM) | 0.12 nmol/min | 21 nM | N#Cc1c(O)nc(SCc2ccccc2Cl)c2c1CCOC2 | 
0.01 nmol/min | 0 nmol/min | 238 µg/mL (≈ 734 µM) | 0 nmol/min | 105 nM | N#Cc1ncccc1CSc1nc(O)c(C#N)c2c1COCC2 | IC50 [8]: 3970 nM; Cmax [9]: 500 nM; Tmax [10]: 4 h; AUC(0-t) at 8 h [11]: 2.9 µM·h; half-life [12]: 0.05 h
0.12 nmol/min | Unstable |  | 0.03 nmol/min | 9 nM | N#Cc1ccc(F)c(CSc2nc(O)c(C#N)c3c2CCCC3)c1 | 
0 nmol/min | Unstable | 1 µg/mL (≈ 2.74 µM) | 0 nmol/min | 3 nM | N#Cc1c2c(c(SCc3c(Cl)cccc3Cl)[nH]c1=O)CCCC2 | 
0.17 nmol/min | 0.16 nmol/min | 6 µg/mL (≈ 18.1 µM) | 0.09 nmol/min |  | N#Cc1c(O)nc(SCc2ccccc2Cl)c2c1CCCC2 | Cmax [9]: 30 nM; IC50 [13]: 1 nM; Tmax [10]: 1 h; AUC(0-t) at 8 h [11]: 0.2 µM·h; half-life [12]: < 0.0167 h
0.3 nmol/min | 0.3 nmol/min | 1 µg/mL (≈ 3.02 µM) | 0.09 nmol/min | 25 nM | N#Cc1c(O)nc(SCc2ccc(Cl)cc2)c2c1CCCC2 | 
0.05 nmol/min | 0.04 nmol/min | 8 µg/mL (≈ 22.7 µM) | 0.25 nmol/min | 62 nM | N#Cc1ccc2c(C#N)c(O)nc(SCc3ccccc3Cl)c2c1 | 
 |  |  |  | 145 nM | N#Cc1c(O)nc(SCc2ccccc2-c2ccccc2)c2c1CCCC2 | 
0.12 nmol/min | 0.14 nmol/min |  | 0.07 nmol/min | 267 nM | N#Cc1c(O)nc(S(=O)(=O)Cc2ccccc2Cl)c2c1CCCC2 | 
